Test system: rat-tail collagen
Assay: Glycation of collagen induced by glycoaldehyde, fluorescence of glycation products
Type: biochemical
Settings: 32 μl of aminoguanidine at 3.39 M, 14 days at 37° C.
Protocol: The study is carried out according to the operating protocol that follows.
On D0, samples to be tested are prepared in sterile hemolysis tubes: • a non-glycated collagen reference, containing • 1 ml of 3 mg/ml rat-tail collagen, • a glycated collagen reference, containing • 1 ml of 3 mg/ml rat-tail collagen, and • 0.3 ml of a glycoaldehyde solution at 143 mM, inducing the glycation reaction, • a positive reference, containing • 1 ml of 3 mg/ml of rat-tail collagen, • 0.3 ml of a solution of glycoaldehyde at 143 mM, inducing the glycation reaction, and • 32 μl of aminoguanidine at 3.39 M, inhibiting the glycation reaction. • product tests, containing • 1 ml of 3 mg/ml rat-tail collagen, • 0.3 ml of a solution of glycoaldehyde at 143 mM, inducing the glycation reaction, and • the active principle according to the invention at 1%, 2.5% and 5%.
The samples are incubated at 37° C. protected from light for 14 days.
On D14, the fluorescence emitted by the glycation products formed is measured with the aid of a spectrofluorimeter.

## N=C(N)NN [Positive reference, aminoguanidine]
Glycated collagen reference 449
  Fluorescence Value: 189
Versus glycated collagen reference
  Effectiveness (%): −58%

Reference: patent US8137707B2, “Method of obtaining an active ingredient increasing cutaneous cell and tissue longevity, active ingredients and compositions” (Societe Industrielle Limousine d'Application Biologique, …, priority 2006, dated 2012)
